In publication PMC12400753 (Respiratory Research, 2025):
Blank lines part the entries; values can stand above or below the compound they belong to.

How the values were obtained:
[1] = system: bleomycin-induced lung fibrosis; assay: Systemic (subcutaneous) bleomycin mouse model; format: in vivo; details: 30 mg/kg oral twice a day, therapeutic
Procedure: Mice were injected subcutaneously with bleomycin (0.1 units/day), on a schedule of 5 days on/2 days off to induce fibrosis. […] Dosing was maintained until study end, at which point lung tissues were collected. The right lobe was snap frozen and processed for collagen analysis for hydroxyproline; the left lobe was sectioned and stained with Masson’s trichrome stain for histological assessment of tissue collagen. This study was conducted by Inotiv (West Lafayette, IN). Forty-four female 9 week old C57Bl/6 mice (Jackson Labs) were provided standard chow (Envigo, Cat #: 8940), housed under standard conditions, and allowed to acclimate for > 3 days prior to enrollment. Prior to start, mice were weighed and placed into balanced enrollment groups. Four days prior to start, mice were anesthetized, dorsal fur shaved and removed with depilatory agent, and two circles (~ 1.5 cm diameter) heat-branded on their dorsal abdomen. Fur was removed as needed for the balance of the study to ensure consistent location of s.c. injections. Beginning on day 0 and through day 26, mice were anesthetized with isoflurane and administered 0.9% NaCl or bleomycin injections (100 µl/injection, s.c.) into each of the circles (2 injections/mouse/d) on a 5 day on/2 day off paradigm. Mice were administered 0.9% NaCl (vehicle) or bleomycin (0.1 U) with bleomycin doses split evenly between the two circles (i.e., 0.05 U/circle). […] Weight measures and health observations were made daily. On day 27, mice were dosed to enable trough blood/plasma collection on day 28, which was collected via retro-orbital approach under isoflurane anesthesia. Following blood collection, mice were administered vehicle or compound on a timetable as appropriate to enable a peak blood collection 2 h postdose. At the time of sacrifice, mice were anesthetized with pentobarbital, a tracheotomy performed and interfaced with a positive pressure ventilator providing 100% O2. The mouse’s chest was then opened, and a needle interfaced with an infusion pump introduced to the right ventricle. […] The lungs were then harvested, immediately immersed in ice-cold 0.9% NaCl, gross dissected and subjected to morphological analyses. Tissue samples will be processed for biochemical and/or histological analyses as described below. Masson’s Trichrome Blue stained slides were subjected to histological analyses using color segmentation analysis for lung fibrosis. Frozen lung samples underwent hydroxyproline analysis as described below. Lung tissue processing – following exsanguination and flushing of the pulmonary circulation to clear blood, the lungs were removed, placed in ice-cold 0.9% NaCl and processed on wet ice. Extraneous tissue was removed and whole lung weight recorded. […]

[2] = system: primary human lung fibroblasts; assay: LPA-induced COL1A1 expression (immunocytochemistry); format: cell-based; details: Homo sapiens, Fibroblast; 1 µM LPA 8 h; compound overnight; read-out: IC50 inhibition of COL1A1 expression
Procedure: COL1A1 assay: Primary human lung fibroblasts were plated in a 96-well plate and allowed to adhere. […] The next day, cells were treated with 1 µM LPA and incubated for 8 h. After incubation in LPA, cells were immunostained for COL1A1. Cells were fixed in formalin for 10 min, washed 3 x with PBS, incubated in collagen 1A1 antibody (1:250 in blocking buffer, 0.1% Triton X-100 in PBS, 2 h), and washed 3 x with PBS. Secondary antibody solution (1:500) and Hoechst (1:2000) were added for 1 h, washed 3 x in PBS then imaged on a Nikon A1R confocal microscope at 10x magnification except human lung fibroblasts which were imaged at 4x. Collagen area was quantified with ImageJ and normalized to Hoechst per image.

LPAR1 [3] = target: T1, LPAR1 (Homo sapiens, UniProt Q92633); assay: LPAR1 calcium mobilization (reference compounds); format: cell-based
Procedure: B. C. LPAR1 Averaged Data (n=4) 200 […] 125 Nonspecific Binding 2nM 600 Specific Binding 150 1nM 100 75 400 100 50 200 25 50 0 0 -25 0 2 4 6 8 10 120 -10 -9 -8 -7 -6 -5[3H]-PIPE-497 (nM) 0 25 50 75 100 125 log[PIPE-497], M Time Figure S3. PIPE- 497 is a potent L P AR 1 receptor antagonist with properties suitable as an in vivo radioligand. A. L P AR 1 calcium mobilization data showing that PIPE-497 (non-tritiated) is a p ot ent […] B. Saturation binding curves of 3H-PIPE-497 to huma n LPAR1 membranes (n=2, error bars are SEM). C. Binding kinetics of 3H-PIPE-497 in recombinant membranes. […] with 10 μM PIPE- 497 th en add ed to membranes at different time points resulting in a residence time of 16.2 minutes (n=4, error bars are SEM). […] At 10 mg/kg, th e free p las ma exposure of BM S -986278 exceeds its measured IC 5 0 up until 4 h p ost d ose. […] IC50 LPAR1)

[4] = system: human precision cut lung slices from donors with pulmonary fibrosis; assay: Fibrotic marker mRNA (qPCR) in cryopreserved PCLS from donors with pulmonary fibrosis; format: cell-based; details: 6 days
Excerpt: Slices were snap frozen and processed for transcript analysis by quantitative PCR. […] Concurrently, we evaluated two well-established, clinical stage antifibrotic mechanisms in this setting: an αvβ1/6 inhibitor (bexotegrast, PLN-74809) and a PDE4B inhibitor (nerandomilast, BI 1015550).
Precision cut lung slices were obtained from Anabios (San Diego, CA) and collected in accordance with their ethics policy (https://anabios.com/ethics-statement/). Donor demographics are available in Additional File 1. Slices were thawed as per vendor instructions. Briefly, PCLS were thawed at 37 °C then transferred to media consisting of DMEM/F12, Antibiotic-Antimytotic, and Penicillin-Streptomycin. PCLS were gently rinsed then transferred to a larger dish. A small tissue sample was excised with a scalpel for immunohistochemistry and qPCR characterization. […] Final concentration of DMSO was 0.1%. Media and compound were replaced every two days for a total of 6 days. At the end of the experiment, slices were collected and snap frozen. Quantitative PCR: RNA was extracted using RNEasy columns. RNA was reverse transcribed using qScript XLT per manufacturer’s instructions. Genes of interest were assessed by qPCR using Perfecta SYBR Green on a StepOne Plus Thermocycler (ABI). Parameters were as follows: 95 °C 30 s, then 45 cycles of 95 °C for 5 s and 60 °C for 30 s.

[5] = system: fresh human PCLS from donors with pulmonary fibrosis; assay: Secreted biomarkers in fresh PCLS from pulmonary fibrosis donors; format: cell-based; details: nintedanib 300 nM; 48 h
Excerpt: Translationally, biomarker-based strategies for assessing aberrant extracellular matrix deposition and remodeling in the context of disease pathogenesis and compound efficacy have become increasingly relevant. For the PCLS gene expression studies, slices were preserved through slow cryogenic freezing of tissue. While this affords experimental flexibility, some physiological relevance is lost over the course of cryostorage and recovery (e.g., immune cell loss). To circumvent this, fresh PCLS from two donors with pulmonary fibrosis were generated and immediately placed into culture. For this experiment, well-established, secreted fibrotic markers that encompass fibrogenesis and tissue remodeling were measured: C3M (a marker of collagen III degradation and an indicant of ECM remodeling and tissue turnover), Pro-C3 (a neo-epitope fragment of collagen III and a marker of active fibrogenesis and fibrosis progression), and Pro-C6 (a neoepitope fragment of COLVIA3 and a marker of remodeling and wound healing). […] Media was then removed and analyzed for biomarker concentration.
PCLS cultures for secreted biomarker analysis were performed at Fraunhofer ITEM (Hanover, Germany) using tissue from pathologist qualified, pulmonary fibrosis patients. Tissue from individual donors and 2 lung regions were collected in accordance with policies approved by the Hanover Medical School ethics committee. Only fibrotic tissue was used for experiments. Region 1 consisted of subpleural tissue and Region 2 of central tissue. For each, lung lobes were filled with low-melting agarose then sectioned at 300 μm on a Krumdiek tissue slicer as described in Hesse et al., 2022. Slices were incubated in DMEM containing penicillin and streptomycin, two slices per region were used. […] Supernatant was collected and shipped to Nordic Bioscience (Herlev, Denmark) for C3M, Pro-C6 and Pro-C3 analysis. Donor information can be found in Additional File 1.

human LPAR2 = target: T2, human LPAR2 (Homo sapiens, UniProt Q9HBW0); assay: LPA-induced calcium mobilization in transiently transfected HEK293T cells; format: cell-based; details: empirically determined, used for stimulation
T2 construct: host or cells: HEK293T
Procedure: (§1) We had previously assessed selectivity against LPAR2 and 3 [11]. […] Human LPAR1-6 plasmids were each transiently transfected into HEK293T cells and the EC80 (effective concentration producing 80% maximal effect) for LPA activation empirically determined. Selectivity was then tested in a concentration response paradigm using a 3 h preincubation followed by LPA-induced calcium mobilization.
(§2) Plasmids containing human LPAR1-6 were obtained from Origene (Rockville, MD) and maxiprepped at Eton Biosciences (San Diego, CA). Transfection mix was prepared by adding Fugene 6 transfection mix to serum free media and 0.1 µg plasmid. After a 20 m incubation, HEK293T cells (ATCC, Manassas VA) were lifted with Accutase and added to the Fugene mix at a final concentration of 0.5 × 10^4 cells/well. Cells were then plated on black clear bottom 96-well plates and incubated overnight in a 37 °C, 5% CO2 incubator. […] During the last hour of incubation, media was removed and replaced with Fluo-4 NW calcium assay dye prepared as per manufacturer’s recommendations in assay buffer. Agonist plates containing LPA were prepared for individual receptor subytpes using their respective EC80. Calcium mobilization was measured as per manufacturer’s directions on a Flexstation 3 (Molecular Devices, San Jose, CA).

human LPAR3 = target: T3, human LPAR3 (Homo sapiens, UniProt Q9UBY5); assay: as above; format: cell-based; details: empirically determined, used for stimulation
T3 construct: host or cells: HEK293T
T3 sequence (Q9UBY5 1-353): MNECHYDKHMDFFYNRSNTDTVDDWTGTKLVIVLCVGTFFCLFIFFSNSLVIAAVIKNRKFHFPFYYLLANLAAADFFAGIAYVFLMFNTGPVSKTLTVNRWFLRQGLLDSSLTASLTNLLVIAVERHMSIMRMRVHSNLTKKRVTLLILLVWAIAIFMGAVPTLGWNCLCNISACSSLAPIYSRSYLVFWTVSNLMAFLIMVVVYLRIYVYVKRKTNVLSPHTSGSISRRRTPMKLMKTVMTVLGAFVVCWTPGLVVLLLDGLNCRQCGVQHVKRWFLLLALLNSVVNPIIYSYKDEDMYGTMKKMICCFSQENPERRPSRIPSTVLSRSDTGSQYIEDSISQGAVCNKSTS
Procedure: as §1, §2

human LPAR4 = target: T4, human LPAR4 (Homo sapiens, UniProt Q99677); assay: as above; format: cell-based; details: empirically determined, used for stimulation
T4 construct: host or cells: HEK293T
Procedure: as §1, §2

human LPAR5 = target: T5, human LPAR5 (Homo sapiens, UniProt Q9H1C0); assay: as above; format: cell-based; details: empirically determined, used for stimulation
T5 construct: host or cells: HEK293T
Procedure: as §1, §2

human LPAR6 = target: T6, human LPAR6 (Homo sapiens, UniProt P43657); assay: as above; format: cell-based; details: empirically determined, used for stimulation
T6 construct: host or cells: HEK293T
T6 sequence (P43657 1-344): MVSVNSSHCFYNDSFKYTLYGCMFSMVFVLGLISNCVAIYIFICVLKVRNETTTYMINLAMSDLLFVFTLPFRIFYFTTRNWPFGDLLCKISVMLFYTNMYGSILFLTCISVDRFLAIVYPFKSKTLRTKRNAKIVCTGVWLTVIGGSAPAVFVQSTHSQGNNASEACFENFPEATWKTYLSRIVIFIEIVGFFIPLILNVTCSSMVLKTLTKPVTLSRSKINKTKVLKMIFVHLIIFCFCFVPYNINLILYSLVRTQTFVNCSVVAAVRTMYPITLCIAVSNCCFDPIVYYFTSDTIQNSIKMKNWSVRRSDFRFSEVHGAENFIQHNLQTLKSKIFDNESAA
Procedure: as §1, §2

LPAR1 [6] = target: T1, LPAR1; assay: as above; format: cell-based; set-up: host or cells: HEK293T; details: empirically determined, used for stimulation
Procedure: as §1, §2

T1 sequence (Q92633 whole entry): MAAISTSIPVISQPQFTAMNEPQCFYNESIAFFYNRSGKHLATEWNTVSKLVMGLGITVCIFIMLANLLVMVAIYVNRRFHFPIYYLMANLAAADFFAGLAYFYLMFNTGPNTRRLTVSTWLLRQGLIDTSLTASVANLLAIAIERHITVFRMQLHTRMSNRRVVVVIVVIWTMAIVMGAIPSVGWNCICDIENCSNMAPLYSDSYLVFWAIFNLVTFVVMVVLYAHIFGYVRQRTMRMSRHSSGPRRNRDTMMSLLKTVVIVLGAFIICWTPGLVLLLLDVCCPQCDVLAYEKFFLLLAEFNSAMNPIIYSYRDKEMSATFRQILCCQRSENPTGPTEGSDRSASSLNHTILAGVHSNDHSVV
T2 sequence (Q9HBW0 whole entry): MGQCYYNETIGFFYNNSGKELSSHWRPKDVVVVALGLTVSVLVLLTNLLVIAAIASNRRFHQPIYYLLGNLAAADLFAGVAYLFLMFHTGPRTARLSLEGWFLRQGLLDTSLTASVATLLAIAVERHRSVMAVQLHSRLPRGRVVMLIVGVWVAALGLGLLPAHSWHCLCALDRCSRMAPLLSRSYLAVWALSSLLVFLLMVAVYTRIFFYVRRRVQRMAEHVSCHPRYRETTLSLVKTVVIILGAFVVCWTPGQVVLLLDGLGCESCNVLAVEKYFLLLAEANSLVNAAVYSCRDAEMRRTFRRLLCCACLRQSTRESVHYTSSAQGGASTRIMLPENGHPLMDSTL
T5 sequence (Q9H1C0 whole entry): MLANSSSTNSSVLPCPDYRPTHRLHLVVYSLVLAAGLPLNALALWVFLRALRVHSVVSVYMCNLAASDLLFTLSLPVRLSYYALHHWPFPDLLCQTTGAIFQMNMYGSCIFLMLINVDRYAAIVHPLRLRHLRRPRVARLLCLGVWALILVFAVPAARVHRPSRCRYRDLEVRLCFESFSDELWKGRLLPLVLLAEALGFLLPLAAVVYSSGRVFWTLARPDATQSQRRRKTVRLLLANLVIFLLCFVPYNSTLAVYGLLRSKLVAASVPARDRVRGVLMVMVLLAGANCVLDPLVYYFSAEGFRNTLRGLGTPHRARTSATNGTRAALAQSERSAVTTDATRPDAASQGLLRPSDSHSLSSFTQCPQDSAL
T4 sequence (Q99677 whole entry): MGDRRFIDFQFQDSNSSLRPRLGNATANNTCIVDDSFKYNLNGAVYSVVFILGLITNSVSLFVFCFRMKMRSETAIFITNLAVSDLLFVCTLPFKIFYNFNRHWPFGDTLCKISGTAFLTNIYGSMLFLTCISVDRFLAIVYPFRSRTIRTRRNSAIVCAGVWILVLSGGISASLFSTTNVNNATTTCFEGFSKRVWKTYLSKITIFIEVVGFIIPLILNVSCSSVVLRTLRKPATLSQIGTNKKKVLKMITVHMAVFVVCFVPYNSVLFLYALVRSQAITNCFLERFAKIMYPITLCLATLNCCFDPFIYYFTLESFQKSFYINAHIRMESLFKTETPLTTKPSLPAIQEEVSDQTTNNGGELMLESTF

Compound: Cc1noc(-c2ccc(-c3ccc(C4(C(=O)O)CC4)cc3)cc2)c1NC(=O)O[C@H](C)c1ccccc1 [BMS-986020, reference compound]
- lung hydroxyproline compared to bleomycin/vehicle [1]: no reduction in hydroxyproline
- reduction in tissue collagen fraction (TCF), trichrome ([1]; p = 0.2723): 62%

- IC50 (LPAR1 [3]): 80.4 nM
Compound: CCCN(C)C(=O)OCc1c(-c2ccc(O[C@H]3CCC[C@H](C(=O)O)C3)c(C)n2)nnn1C [BMS-986278, reference compound]
- IC50 [2]: 30.6 nM

Compound: COCCN(CCCCc1ccc2c(n1)NCCC2)CC[C@H](Nc1ncnc2ccccc12)C(=O)O [bexotegrast]
- COL3A1 mRNA expression vs vehicle ([4]; 300 nM, P 0.1827 (not significant)): reduces
- SERPINE1 mRNA expression vs vehicle ([4]; 300 nM, P 0.4056 (not significant)): reduces
- LPAR1 mRNA expression vs vehicle ([4]; 300 nM, P 0.8283): unchanged
- COL1A1 mRNA expression vs vehicle ([4]; 300 nM, P < 0.05): significantly less
- TIMP-1 mRNA expression vs vehicle ([4]; 300 nM, P < 0.05): significantly lower

Compound: [O-][S+]1CCc2nc(N3CCC(c4ncc(Cl)cn4)CC3)nc(NC3(CO)CCC3)c21 (stereo not shown) [nerandomilast]
- COL3A1 mRNA expression vs vehicle ([4]; 10 µM, P 0.1621 (not significant)): reduces
- TIMP1 mRNA expression vs vehicle ([4]; 10 µM, P 0.6976 (not significant)): reduces
- SERPINE1 mRNA expression vs vehicle ([4]; 10 µM, P 0.8986 (not significant)): reduces
- COL1A1 mRNA expression vs vehicle ([4]; 10 µM, P < 0.05): significantly less

Compound: COC(=O)c1ccc2c(c1)NC(=O)/C2=C(\Nc1ccc(N(C)C(=O)CN2CCN(C)CC2)cc1)c1ccccc1 [nintedanib, reference compound]
- secreted C3M [5]: significant reduction
- secreted Pro-C3 [5]: did not show a significant decrease
- secreted Pro-C6 [5]: reduced

- LPA EC80 (human LPAR2): 5000 nM
- LPA EC80 (human LPAR3): 10000 nM
- LPA EC80 (human LPAR4): 10000 nM
- LPA EC80 (human LPAR5): 1000 nM
- LPA EC80 (human LPAR6): 13000 nM
- LPA EC80 (LPAR1 [6]): 5000 nM
Compound: lysophosphatidic acid [LPA, reference compound]
